# Measured values: patent US20210386729A1, “METHODS FOR TREATING LIVER DISORDERS USING FXR AGONISTS” (NOVARTIS AG, priority 2016, published 2021)
# Where two headings read alike, the source gives them in different places.
# What was measured:
# [1] = test system: rat ANIT-induced cholestasis chronic treatment model; assay: PK/PD modeling of effective exposure in rat ANIT-induced cholestasis chronic treatment model; format: in vivo
# Protocol: Male Wistar rats were treated with ANIT (0.1% ANIT in chow diet) for 2 weeks. […] The serum samples were collected on day 14 for analysis of biomarkers of hepatobiliary injury (including ALT, AST, bilirubin and bile acids). The PK samples (pre-dose, 0.5, 1, 3, 7, 10 and 24 h, n=3/dose group) were taken on day 13 (at steady-state). […] The mean biomarker data were compared to the PK data (average concentration at each dose) for the modeling. The IC80 was determined using the Inhibitory effect Imax model (effect C=0 at Imax, C=infinity at E0) built in Phoenix WinNonlin 6.3 software. […] Therefore, we chose to use a mean of the IC80 for the four biomarkers (total bilirubin, total bile acids, ALT and AST) as the IC80 for efficacy in this model. From these studies, the IC80 of LJN452 was 0.127 ng/ml and the corresponding AUC0-24 h was 3.05 ng*h/ml (Table 1), and the corresponding efficacious dose is approximately 0.01 mg/kg (based on Table 1 and Table 2).
# E0, effect at zero drug concentration; Imax, maximal drug effect; IC80, drug concentration producing 80% of the maximum effect.
# The PK samples (pre-dose, 0.5, 1, 3, 7, 10 and 24 h, n=3/dose group) were taken on day 13 (at steady-state). AUC0-24 h was determined using Phoenix WinNonlin 6.3 software and the average concentrations were calculated from mean of AUC0-24 h at each dose (divided the AUC0-24 h by 24 h). The individual biomarker data were compared to the PK data (average concentration at each dose) for the modeling. Since the lowest dose (0.01 mg/kg) already approached maximal efficacy, the IC80 was chosen as the measurement of the efficacious exposure (Table 1). The IC80 was determined using the Inhibitory effect Imax model (effect C=0 at Imax, C=infinity at E0) built in Phoenix WinNonlin 6.3 software.
# E0: effect at zero drug concentration; Imax: maximal drug effect IC80, drug concentration producing 80% of the maximum effect.
# [2] = Food effect (high-fat meal vs fasted) on pharmacokinetics; format: in vivo, human; conditions: taken with a high-fat meal
# Protocol: To avoid variability in drug exposure, it is recommended that throughout the treatment period, patients will be directed to take study drug at home with ˜240 mL (8 ounces) of water in the morning in a fasting state, at least 30 min prior to the first beverage apart from water and 60 min prior to first meal of the day, preferably at the same time of the day.
# [3] = In vitro potency, human vs rat
# [4] = Multiple oral dose plasma pharmacokinetics in healthy subjects; format: in vivo, human; conditions: for Cmax / AUC / Tmax: human, plasma
# [5] = Single oral dose plasma pharmacokinetics in healthy subjects; format: in vivo, human; conditions: for CL/F / AUC(0-inf) / AUC(0-t) / Cmax / half-life / Tmax: healthy subjects, plasma; for AUC(0-inf) / AUC(0-t) / Cmax / half-life / Tmax: human
# [6] = Protein binding, human vs rat; format: in vitro ADME
# [7] = effect at zero drug concentration, 2-week rat ANIT model, serum
# [8] = maximal drug effect, 2-week rat ANIT model, serum
# [9] = healthy subjects, 10 μg qd, Day 1, plasma, mean
# [10] = healthy subjects, 10 μg qd, Day 13, plasma, mean
# [11] = healthy subjects, 30 μg qd, Day 1, plasma, mean
# [12] = healthy subjects, 30 μg qd, Day 13, plasma, mean
# [13] = healthy subjects, 60 μg qd, Day 1, plasma, mean
# [14] = healthy subjects, 60 μg qd, Day 13, plasma, mean
# [15] = healthy subjects, 100 μg qd, Day 1, plasma, mean
# [16] = healthy subjects, 100 μg qd, Day 13, plasma, mean
# [17] = 10 ug, single oral dose 10 μg, fasted, mean
# [18] = 30 ug, single oral dose 30 μg, fasted, mean
# [19] = 100 ug, single oral dose 100 μg, fasted, mean
# [20] = 300 ug, single oral dose 300 μg, fasted, mean
# [21] = 1000 ug, single oral dose 1000 μg, fasted, mean
# [22] = 3000 ug, single oral dose 3000 μg, fasted, mean
structure (smiles),measurement,setting,value
O=C(O)c1cc(F)c2nc(N3C4CC[C@H]3CC(OCc3c(-c5ccccc5OC(F)(F)F)noc3C3CC3)C4)sc2c1 (stereo partly drawn) [Compound A],Mean (efficacious AUC0-24 h),"[1]; AUC0-24 h corresponding to mean IC80, rat ANIT model",3.05 ng·h/mL
same,IC80,"[1]; drug concentration producing 80% of the maximum effect, rat ANIT model, read-out: IC80, ALT",0.054 ng/mL
same,IC80,"[1]; drug concentration producing 80% of the maximum effect, rat ANIT model, read-out: IC80, AST",0.076 ng/mL
same,IC80,"[1]; drug concentration producing 80% of the maximum effect, rat ANIT model, read-out: IC80, Total bile acids",0.155 ng/mL
same,IC80,"[1]; drug concentration producing 80% of the maximum effect, rat ANIT model, read-out: IC80, Total bilirubin",0.223 ng/mL
same,"E0, ALT",[1]; [7],138.2 U/L
same,"E0, AST",[1]; [7],272.8 U/L
same,"E0, Total bile acids",[1]; [7],147.8 µmol/L
same,"E0, Total bilirubin",[1]; [7],2.3 mg/dL
same,"Imax, ALT",[1]; [8],84.2 U/L
same,"Imax, AST",[1]; [8],140.3 U/L
same,"Imax, Total bile acids",[1]; [8],125.5 µmol/L
same,"Imax, Total bilirubin",[1]; [8],2.0 mg/dL
same,IC80,"[1]; mean of IC80 for total bilirubin, total bile acids, ALT and AST, rat ANIT model, read-out: Mean (IC80)",0.127 ng/mL
same,corresponding efficacious dose,"[1]; rat ANIT model, based on Table 1 and Table 2",approximately 0.01 mg/kg
same,Tmax,"[2]; human, plasma, oral, read-out: median Tmax",9 h
same,increase of mean AUCinf compared to the fasted state,[2],approximately 60%
same,increase of mean Cmax compared to the fasted state,[2],approximately 60%
same,in vitro potency between human and rat,[3],similar
same,Racc,[4]; [9],1.00
same,Tlast,[4]; [9],23.9 h
same,Racc,[4]; [10],1.87
same,Tlast,[4]; [10],23.6 h
same,Racc,[4]; [11],1.00
same,Tlast,[4]; [11],23.9 h
same,Racc,[4]; [12],1.21
same,Tlast,[4]; [12],23.6 h
same,Racc,[4]; [13],1.00
same,Tlast,[4]; [13],23.9 h
same,Racc,[4]; [14],1.66
same,Tlast,[4]; [14],22.3 h
same,Racc,[4]; [15],1.00
same,Tlast,[4]; [15],23.9 h
same,Racc,[4]; [16],1.41
same,Tlast,[4]; [16],23.6 h
same,Cmax,"[4]; oral, 10 μg, average Cmax at day 13 for a dose level of 10 μg, exposures for the doses 10-100 μg normalized to 10 μg",0.32 ng/mL
same,AUC,"[4]; oral, 10 μg, exposures for the doses 10-100 μg normalized to 10 μg, read-out: average AUCtau at day 13 for a dose level of 10 μg",4.84 ng·h/mL
same,AUC,"[4]; oral, 10 ug, healthy subjects, 10 μg qd, Day 1, plasma, mean, read-out: AUCtau",2.88 ng·h/mL
same,Cmax,"[4]; oral, 10 ug, healthy subjects, 10 μg qd, Day 1, plasma, mean, read-out: Cmax",0.212 ng/mL
same,Tmax,"[4]; oral, 10 ug, healthy subjects, 10 μg qd, Day 1, plasma, median, read-out: Tmax",4 h
same,AUC,"[4]; oral, 10 ug, healthy subjects, 10 μg qd, Day 13, plasma, mean, read-out: AUCtau",4.88 ng·h/mL
same,Cmax,"[4]; oral, 10 ug, healthy subjects, 10 μg qd, Day 13, plasma, mean, read-out: Cmax",0.319 ng/mL
same,Tmax,"[4]; oral, 10 ug, healthy subjects, 10 μg qd, Day 13, plasma, median, read-out: Tmax",4 h
same,AUC,"[4]; oral, 30 ug, healthy subjects, 30 μg qd, Day 1, plasma, mean, read-out: AUCtau",11.7 ng·h/mL
same,Cmax,"[4]; oral, 30 ug, healthy subjects, 30 μg qd, Day 1, plasma, mean, read-out: Cmax",0.894 ng/mL
same,Tmax,"[4]; oral, 30 ug, healthy subjects, 30 μg qd, Day 1, plasma, median, read-out: Tmax",6 h
same,AUC,"[4]; oral, 30 ug, healthy subjects, 30 μg qd, Day 13, plasma, mean, read-out: AUCtau",14 ng·h/mL
same,Cmax,"[4]; oral, 30 ug, healthy subjects, 30 μg qd, Day 13, plasma, mean, read-out: Cmax",0.943 ng/mL
same,Tmax,"[4]; oral, 30 ug, healthy subjects, 30 μg qd, Day 13, plasma, median, read-out: Tmax",4 h
same,AUC,"[4]; oral, 60 ug, healthy subjects, 60 μg qd, Day 1, plasma, mean, read-out: AUCtau",16.2 ng·h/mL
same,Cmax,"[4]; oral, 60 ug, healthy subjects, 60 μg qd, Day 1, plasma, mean, read-out: Cmax",1.22 ng/mL
same,Tmax,"[4]; oral, 60 ug, healthy subjects, 60 μg qd, Day 1, plasma, median, read-out: Tmax",4 h
same,AUC,"[4]; oral, 60 ug, healthy subjects, 60 μg qd, Day 13, plasma, mean, read-out: AUCtau",25.3 ng·h/mL
same,Cmax,"[4]; oral, 60 ug, healthy subjects, 60 μg qd, Day 13, plasma, mean, read-out: Cmax",1.61 ng/mL
same,Tmax,"[4]; oral, 60 ug, healthy subjects, 60 μg qd, Day 13, plasma, median, read-out: Tmax",4 h
same,AUC,"[4]; oral, 100 ug, healthy subjects, 100 μg qd, Day 1, plasma, mean, read-out: AUCtau",30.3 ng·h/mL
same,Cmax,"[4]; oral, 100 ug, healthy subjects, 100 μg qd, Day 1, plasma, mean, read-out: Cmax",2.4 ng/mL
same,Tmax,"[4]; oral, 100 ug, healthy subjects, 100 μg qd, Day 1, plasma, median, read-out: Tmax",4 h
same,AUC,"[4]; oral, 100 ug, healthy subjects, 100 μg qd, Day 13, plasma, mean, read-out: AUCtau",50.2 ng·h/mL
same,Cmax,"[4]; oral, 100 ug, healthy subjects, 100 μg qd, Day 13, plasma, mean, read-out: Cmax",3.47 ng/mL
same,Tmax,"[4]; oral, 100 ug, healthy subjects, 100 μg qd, Day 13, plasma, median, read-out: Tmax",4 h
same,Tmax,"[4]; po, once daily oral dosing 10-100 μg, fasted, post-dose, read-out: Tmax range",3 to 10 h
same,Tmax,"[4]; po, once daily oral dosing for 13 days, fasted, Day 13, across all doses, read-out: median Tmax",4 h
same,dose proportionality of Cmax and AUCtau,"[4]; once daily doses for 13 days, 10-100 μg",approximately dose-proportional increase
same,time to steady-state,"[4]; once daily oral dosing, trough levels",≤ 4 days
same,CL/F,"[5]; single oral dose 10 μg, fasted, mean",2.98 L/h
same,CL/F,"[5]; single oral dose 30 μg, fasted, mean",2.26 L/h
same,CL/F,"[5]; single oral dose 100 μg, fasted, mean",3.08 L/h
same,CL/F,"[5]; single oral dose 300 μg, fasted, mean",3.21 L/h
same,CL/F,"[5]; single oral dose 1000 μg, fasted, mean",2.43 L/h
same,CL/F,"[5]; single oral dose 3000 μg, fasted, mean",3.63 L/h
same,AUC(0-inf),[5]; [17],3.39 ng·h/mL
same,AUC(0-t),[5]; [17],2.79 ng·h/mL
same,Cmax,[5]; [17],0.186 ng/mL
same,half-life,"[5]; 10 ug, single oral dose 10 μg, fasted, mean, read-out: T1/2 (converted)",894 min
same,Tmax,"[5]; 10 ug, single oral dose 10 μg, fasted, median, read-out: Tmax",4 h
same,AUC(0-inf),[5]; [18],13.4 ng·h/mL
same,AUC(0-t),[5]; [18],12.7 ng·h/mL
same,Cmax,[5]; [18],0.627 ng/mL
same,half-life,"[5]; 30 ug, single oral dose 30 μg, fasted, mean, read-out: T1/2 (converted)",822 min
same,Tmax,"[5]; 30 ug, single oral dose 30 μg, fasted, median, read-out: Tmax",4 h
same,AUC(0-inf),[5]; [19],37.9 ng·h/mL
same,AUC(0-t),[5]; [19],34.8 ng·h/mL
same,Cmax,[5]; [19],1.73 ng/mL
same,half-life,"[5]; 100 ug, single oral dose 100 μg, fasted, mean, read-out: T1/2 (converted)",810 min
same,Tmax,"[5]; 100 ug, single oral dose 100 μg, fasted, median, read-out: Tmax",4 h
same,AUC(0-inf),[5]; [20],123 ng·h/mL
same,AUC(0-t),[5]; [20],119 ng·h/mL
same,Cmax,[5]; [20],6.41 ng/mL
same,half-life,"[5]; 300 ug, single oral dose 300 μg, fasted, mean, read-out: T1/2 (converted)",918 min
same,Tmax,"[5]; 300 ug, single oral dose 300 μg, fasted, median, read-out: Tmax",4 h
same,AUC(0-inf),[5]; [21],482 ng·h/mL
same,AUC(0-t),[5]; [21],416 ng·h/mL
same,Cmax,[5]; [21],22.1 ng/mL
same,half-life,"[5]; 1000 ug, single oral dose 1000 μg, fasted, mean, read-out: T1/2 (converted)",1310 min
same,Tmax,"[5]; 1000 ug, single oral dose 1000 μg, fasted, median, read-out: Tmax",4 h
same,AUC(0-inf),[5]; [22],933 ng·h/mL
same,AUC(0-t),[5]; [22],888 ng·h/mL
same,Cmax,[5]; [22],54.2 ng/mL
same,half-life,"[5]; 3000 ug, single oral dose 3000 μg, fasted, mean, read-out: T1/2 (converted)",990 min
same,Tmax,"[5]; 3000 ug, single oral dose 3000 μg, fasted, median, read-out: Tmax",4 h
same,Tmax,"[5]; single oral dose, fasted, read-out: median Tmax",4 h
same,half-life,"[5]; single oral dose, range across doses, read-out: mean apparent terminal elimination half-life",780 to 1320 min
same,dose proportionality of mean Cmax and AUCinf,"[5]; single dose, dose range 10 μg to 3000 μg",approximately dose proportional increase
same,protein binding between human and rat,[6],similar
